Laboratory results as given in patent publication US7030265B2, “Retinol derivatives, the method of preparations and the uses thereof” (Chebigen, Inc., priority 2001, dated 2006).

Columns and labels:
Format in all cases: cell-based
[1] = molecular target: T1, retinoid X receptor α (Homo sapiens, UniProt P19793); assay: RXR activity test, DR1-tk-CAT reporter in HaCAT cells; settings: 1 μM, CAT ELISA, FIG. 2 (B)
T1 construct: expressed in transfected cells; host or cells: HaCAT
T1 sequence (P19793 1-462): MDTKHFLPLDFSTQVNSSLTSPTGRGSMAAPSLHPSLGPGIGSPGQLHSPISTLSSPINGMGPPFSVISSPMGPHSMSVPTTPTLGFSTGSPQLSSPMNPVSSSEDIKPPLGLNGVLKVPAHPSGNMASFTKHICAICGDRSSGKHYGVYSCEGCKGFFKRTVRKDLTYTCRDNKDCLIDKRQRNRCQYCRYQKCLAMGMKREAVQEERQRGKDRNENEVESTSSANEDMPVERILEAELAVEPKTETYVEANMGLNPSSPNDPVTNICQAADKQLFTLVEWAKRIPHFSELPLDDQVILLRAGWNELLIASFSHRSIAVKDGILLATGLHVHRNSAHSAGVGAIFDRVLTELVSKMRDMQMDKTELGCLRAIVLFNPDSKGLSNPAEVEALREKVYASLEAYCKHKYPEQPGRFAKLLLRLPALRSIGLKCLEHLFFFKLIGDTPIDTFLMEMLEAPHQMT
Excerpt: (§1) To analyze the effects of retinol-(N-formyl-aspartam) on the activity of retinoic acid receptor, skin cancer (HaCAT) cell lines were utilized to measure the activity of retinoic acid receptor/retinoid X receptor.
(§2) Recombinant DNA, DR5-tk-CAT or DR1-tk-CAT consisting of DR1 or DR5, effectors of retinoic acid receptor/retinoid X receptor, thymine kinase promoter, and CAT(chloramphenicol acetyl transferase) were mixed with the plasmid DNA expressing retinoic acid receptor α, β, ? or retinoid X receptor α, β, ? to cotransfect skin cancer (HaCAT) cell line with lipofectamine (GibcoBRL). The cotransfected cell lines were cultured for 1 day on DMEM/10% FBS media, each retinol derivatives (1 μM) were added and cultured for one more day, 5% CO2, 37° C. The cells were washed with phosphate-buffered saline (PBS), and the proteins were isolated from each cells, and the activity of β-galactosidase and protein contents were measured to determine transfection efficacy, the transcription level of RAR or RXR receptor were measured with CAT ELISA (Roche Molecular Biochemical, Mannheim, Germany).

[2] = molecular target: T2, retinoid X receptor β (Homo sapiens, UniProt P28702); assay: as above; settings: 1 μM, CAT ELISA, FIG. 2 (B)
T2 construct: expressed in transfected cells; host or cells: HaCAT
T2 sequence (P28702 1-533): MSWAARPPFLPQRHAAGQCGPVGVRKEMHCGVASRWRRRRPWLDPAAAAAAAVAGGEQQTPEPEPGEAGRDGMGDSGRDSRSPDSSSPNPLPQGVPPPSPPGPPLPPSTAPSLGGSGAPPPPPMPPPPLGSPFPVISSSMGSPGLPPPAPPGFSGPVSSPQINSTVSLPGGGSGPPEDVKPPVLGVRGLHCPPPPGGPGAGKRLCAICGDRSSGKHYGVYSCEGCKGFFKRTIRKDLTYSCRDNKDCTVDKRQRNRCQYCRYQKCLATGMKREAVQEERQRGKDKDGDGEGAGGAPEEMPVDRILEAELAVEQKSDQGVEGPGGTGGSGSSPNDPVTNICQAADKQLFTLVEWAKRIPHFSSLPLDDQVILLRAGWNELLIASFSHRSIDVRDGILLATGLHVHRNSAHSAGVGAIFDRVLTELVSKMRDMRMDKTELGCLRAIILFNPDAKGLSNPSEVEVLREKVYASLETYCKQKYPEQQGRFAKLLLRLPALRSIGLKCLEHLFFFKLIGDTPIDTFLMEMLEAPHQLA
Excerpt: as §1, §2

[3] = test system: HCT116 (colon cancer); assay: Cell toxicity test (living cell count); settings: HCT116 cells, 0, 500, 1000, 5000 nM, 4 days, FIG. 1
Experimental: (§3) The cell line utilized for cell toxicity test of retinal derivatives were SK-Hep-1(liver cancer), MDA-MB-231 (breast cancer), HaCAT (skin cancer), and HCT116 (colon cancer). Those cell lines were maintained and cultured in DMEM (Dulbecco's Modified Eagle's Medium)/10% FBS containing 10% fetal bovine serum (FBS) (GibcoBRL, Gaithersburg, Md.). 3×10^3 cells, 100 μl media per well were distribute into 96 well microtiter plate and cultured for 24 hours. Each cultured cell lines were treated with various concentrations of retinal derivatives (0, 500, 1000, 5000 nM) for 4 days and living cells were counted with hemocytometer to measure the inhibition effect of cell proliferation.
(§4) The retinal derivatives utilized for the experiments were retinol-(N-formyl-aspartam), retinol, 4-HPR[N-(4-hydroxyphenyl)retineamide] (Sigma Co., St. Louis, Mo.). Those derivatives were eluted in dimethylsulfoxide and the concentration of dimethylsulfoxide added into culture media was kept at not over 0.01%.

[4] = test system: MDA-MB-231 (breast cancer); assay: Cell toxicity test (living cell count); settings: MDA-MB-231 cells, 0, 500, 1000, 5000 nM, 4 days, FIG. 1
Experimental: as §3, §4

[5] = test system: HaCAT (skin cancer); assay: Cell toxicity test (living cell count); settings: HaCAT cells, 0, 500, 1000, 5000 nM, 4 days, FIG. 1
Experimental: as §3, §4

[6] = test system: SK-Hep-1 (liver cancer); assay: Cell toxicity test (living cell count); settings: SK-Hep-1 cells, 0, 500, 1000, 5000 nM, 4 days, FIG. 1
Experimental: as §3, §4

[7] = test system: activation protein-1 (AP-1); assay: Activity inhibition test of AP-1, Coll-CAT reporter in Cos-1 cells; settings: expression level in the presence of c-Jun expression set as 100%
Excerpt: CAT reporter (Coll-CAT) containing collagen promoter including AP-1 transcription factor binding site (TRE) was utilized to transfect Cos-1 cell line. Activity inhibition tests of activation protein-1 (AP-1) similar to the experimental example 6 were proceeded.

[8] = test system: activation protein-1 (AP-1); assay: Activity inhibition test of AP-1, Coll-CAT reporter in HaCAT cells; settings: c-Jun expression, in the presence of retinoic acid receptor α, CAT ELISA, FIG. 6
Experimental: Since the activation protein-1 (c-Jun is the constituent of AP-1) is transcription factor inducing expression of collagenase enzyme, which is a major cause of skin wrinkle, the effect of wrinkle prevention was determined by the activity inhibition test of AP-1.
CAT reporter (Coll-CAT) containing collagen promoter including AP-1 transcription factor binding site (TRE) were utilized to cotransfect skin cancer (HaCAT) cell line. The effect of retinol derivatives on the activity of AP-1 was measured by CAT ELISA. In some cases, the vector expressing c-Jun or retinoic acid receptors were utilized to cotransfect, and the effect of retinol derivatives on the transcription activity of c-Jun was analyzed.
With the assumption of the prepared retinol-(N-formyl-aspartam) derivatives which inhibit the activity of AP-1 causing skin wrinkle, would have the utility for cosmetics, the related investigations were proceeded. Similar to the experiment of retinoic acid receptor, AP-1 (c-jun) expression vector and Coll-CAT plasmid for the activity measurement were introduced into the skin cancer (HaCAT) cell line with liposome. After treating the cells with retinol-(N-formyl-aspartam) derivatives, the cell extracts were isolated. The expression level of CAT were measured with CAT ELISA to determine the effect of retinol-(N-formyl-aspartam) on the activity of the AP-1.

SMILES: COC(=O)C(Cc1ccccc1)NC(=O)[C@H](CC(=O)OC/C=C(C)/C=C/C=C(C)/C=C/C1=C(C)CCCC1(C)C)NC=O (stereo partly drawn) [retinol-(N-formyl-aspartam), (2E,4E,6E,8E)-3,7-dimethyl-9-(2,6,6-trimethyl-1-cyclohexenyl)-2,4,6,8-nonatetraenyl(3S)-4-[(1-benzyl-2-methoxy-2-oxoethyl)amino]-3-formylamino-4-oxobutanoate]
- activation of retinoid X receptor α [1]: no activation
- activation of retinoid X receptor β [2]: no activation
- cell toxicity (inhibition of cell proliferation) [3]: less toxicity than retinol
- cell toxicity (inhibition of cell proliferation) [4]: no toxicity
- cell toxicity (inhibition of cell proliferation) [5]: no toxicity
- cell toxicity (inhibition of cell proliferation) [6]: no toxicity
- lowered the expression of collagenase (Coll-CAT) [7]: approximately 42%
- lowered the expression of collagenase (Coll-CAT) [8]: ~44%
